Assay [1] addresses sphingosine kinase 1 (SK1) (Homo sapiens, UniProt Q9NYA1). Nature of the assay: fluorescent NBD-sphingosine kinase assay with recombinant human SK1. In kind it is biochemical.
For assay [2], the target named is T1, sphingosine kinase 2 (SK2) (Homo sapiens, UniProt Q9NRA0).
T1 sequence (Q9NRA0 1-654): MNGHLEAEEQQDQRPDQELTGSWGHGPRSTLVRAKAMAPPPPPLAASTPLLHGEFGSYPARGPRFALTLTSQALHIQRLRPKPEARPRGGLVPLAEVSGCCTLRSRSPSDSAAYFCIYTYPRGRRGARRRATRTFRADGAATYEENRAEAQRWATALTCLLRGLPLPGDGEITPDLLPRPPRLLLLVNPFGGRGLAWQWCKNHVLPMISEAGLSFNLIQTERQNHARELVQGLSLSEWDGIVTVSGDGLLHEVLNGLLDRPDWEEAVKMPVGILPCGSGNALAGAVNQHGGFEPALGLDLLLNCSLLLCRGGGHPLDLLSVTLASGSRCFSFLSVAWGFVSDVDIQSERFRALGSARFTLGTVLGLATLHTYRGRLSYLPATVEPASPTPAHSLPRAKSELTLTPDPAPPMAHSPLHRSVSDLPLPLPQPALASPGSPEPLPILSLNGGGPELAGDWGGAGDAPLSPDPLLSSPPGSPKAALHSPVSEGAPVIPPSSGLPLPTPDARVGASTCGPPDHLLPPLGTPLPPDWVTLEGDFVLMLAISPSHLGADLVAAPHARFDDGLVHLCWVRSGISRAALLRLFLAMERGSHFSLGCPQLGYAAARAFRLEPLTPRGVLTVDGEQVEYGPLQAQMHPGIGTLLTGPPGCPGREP
Nature of the assay: fluorescent NBD-sphingosine kinase assay with recombinant human SK2. In kind it is biochemical.

Molecules are shown by their SMILES. Where a name gives a salt, the structure may show the parent alone.

A word on the IC50: it is the concentration that gives 50% inhibition.

Chain of sphingosine kinase 1 (SK1) (Q9NYA1 whole entry): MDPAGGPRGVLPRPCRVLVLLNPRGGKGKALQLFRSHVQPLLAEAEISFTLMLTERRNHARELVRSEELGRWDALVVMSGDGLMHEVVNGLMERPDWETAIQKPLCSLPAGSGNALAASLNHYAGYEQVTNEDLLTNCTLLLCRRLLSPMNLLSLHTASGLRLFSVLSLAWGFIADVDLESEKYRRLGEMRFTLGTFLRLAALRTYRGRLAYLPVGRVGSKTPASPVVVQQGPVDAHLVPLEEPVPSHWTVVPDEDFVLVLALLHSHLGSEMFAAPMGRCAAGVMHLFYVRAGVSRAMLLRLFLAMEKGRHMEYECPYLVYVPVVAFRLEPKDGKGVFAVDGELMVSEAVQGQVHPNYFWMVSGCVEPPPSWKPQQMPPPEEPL

In the case of `CCCCCCCCCCCCC/C=C/[C@H](O)[C@@H](CO)NC(=N)N` [LCL351, L-erythro-2-N-(1′-carboxamidino)-sphingosine hydrochloride], the results for the IC50 in assay [1] and in assay [2] were approximately 5.5 µM and approximately 57 µM, respectively.

The record behind these values is article PMC5509055 (Prostaglandins & other lipid mediators, 2017).
